# Measured values: patent publication US7608611B2, “Hsp90 inhibitors, methods of making and uses therefor” (The Regents of the University of Colorado, priority 2005, dated 2009)
# Like-named read-outs stand apart in the source and are kept apart here.
# How the values were obtained:
# MDA468 cells [1] = test: Metabolism of 17-AAG in intact MDA468 cells, HPLC; assay type: cell-based, human; settings: 5 μM 17-AAG, 4 hr
# yeast Hsp90 = yeast Hsp90 (Saccharomyces cerevisiae, UniProt P02829); assay type: biochemical; settings: 17-AAG, 3 hr; for inhibition of yeast Hsp90 ATPase activity in the presence of NQO1 (17-AAGH2 formed): NADH and rhNQO1
# Sequence of yeast Hsp90 (P02829 whole entry): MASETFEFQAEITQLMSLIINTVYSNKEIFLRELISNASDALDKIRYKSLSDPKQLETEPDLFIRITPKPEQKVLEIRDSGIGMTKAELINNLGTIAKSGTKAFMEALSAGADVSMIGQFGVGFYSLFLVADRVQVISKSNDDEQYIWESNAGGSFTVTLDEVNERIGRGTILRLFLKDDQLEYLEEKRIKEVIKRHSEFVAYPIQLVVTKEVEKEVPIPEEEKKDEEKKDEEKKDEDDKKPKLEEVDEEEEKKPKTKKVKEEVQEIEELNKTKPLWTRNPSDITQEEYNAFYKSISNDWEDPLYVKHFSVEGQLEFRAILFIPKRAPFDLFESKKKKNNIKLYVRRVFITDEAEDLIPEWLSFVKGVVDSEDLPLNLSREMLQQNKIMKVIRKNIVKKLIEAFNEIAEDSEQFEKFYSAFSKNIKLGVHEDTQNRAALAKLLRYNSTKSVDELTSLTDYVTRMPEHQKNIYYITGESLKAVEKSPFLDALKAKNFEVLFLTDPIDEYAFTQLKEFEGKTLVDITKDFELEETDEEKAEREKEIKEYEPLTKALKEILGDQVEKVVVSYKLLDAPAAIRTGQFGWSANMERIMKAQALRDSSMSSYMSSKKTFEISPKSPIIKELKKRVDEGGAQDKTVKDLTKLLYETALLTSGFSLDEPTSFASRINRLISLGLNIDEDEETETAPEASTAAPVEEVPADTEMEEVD
# Description: Reactions with yeast Hsp90 (top panel) were analyzed after 3 hr, while reactions with human Hsp90 (bottom panel) were analyzed after 12 hr. Phosphate concentrations were measured using the malachite green assay.
# Reactions (25 μl) were started by the addition of 1 mM ATP and allowed to proceed at 37° C. for the indicated times. Reactions were then diluted with 225 μl of 100 mM Tris-HCl, pH 7.4, containing 20 mM KCl and 6 mM MgCl2 mixed thoroughly, and 80 μl was transferred to each well (96 well plate) followed by 20 μl of malachite green reagent. After 10 min 83 mM trisodium citrate was added to stabilize the color and plates were read at 650 nm.
# MDA468 cells [2] = settings: read-out: IC50 growth inhibition; parental MDA468 cells, 4 hr exposure then 72 hr drug-free, MTT
# Description: (§2) Cells were seeded at 2×10^3 cells per well (96 well plate) in complete medium overnight.
# MDA468/NQ16 cells [3] = settings: MTT
# Description: as §2
# [4] = system: MDA468/NQ16 cell sonicates; settings: NADH or NADPH
# Description: The human breast cancer cell line MDA468 and the NQO1 stably transfected cell line MDA468/NQ16 (Clin. Cancer Res. 2004; 10:3147-55) were grown in RPMI-1640 containing 10% (v/v) fetal bovine serum and 1% (v/v) penicillin, streptomycin and glutamine. […] Protein concentrations were determined by the method of Lowry. […] The parental MDA468 cell lines is NQO1 null (<10 nmoles DCPIP/min/mg) due to homozygous expression of the NQO1*2 polymorphism. The stable transfection of the MDA468 cell line with human NQO1 generated the MDA468/NQ16 cell line, which has high NQO1 activity (>1,800 nmoles DCPIP/min/mg).
# MDA468 cell sonicates = test: Reduction of 17-AAG by MDA468 cell sonicates, HPLC; assay type: in vitro ADME, human
# Hsp90 = test: Immunoblot of Hsp90 inhibition markers (Hsp70, Raf-1, pMEK, pERK) in MDA468/NQ16 versus MDA468 cells; assay type: cell-based, human; settings: MDA468/NQ16 compared to MDA468 cells
# Description: Results were confirmed in duplicate experiments. […] Results were confirmed in duplicate experiments.
# To measure Hsp90 inhibition in these cells we analyzed Hsp70 induction and Raf-1 degradation as markers of Hsp90 inhibition (FIG. 5). […] Following drug treatment cells were washed in PBS then lysed by the addition of RIPA buffer (50 mM Tris-HCl, pH 7.4, 0.5% (v/v) NP40) containing 1 mini-protease tablet (protease inhibitor cocktail, Roche Indianapolis Ind.) and phosphatase inhibitors (30 mM NaF, 40 mM β-glycerol phosphate, 20 mM sodium pyrophosphate, 1 mM orthovanadate, 1 mM EGTA). Lysates were probe sonicated (2s) on ice then centrifuged to remove cellular debris. Protein concentrations were determined on supernatant. […] Membranes were blocked in 10 mM Tris-HCl, pH 8.0, 150 mM NaCl, 0.2% Tween-20 and 5% non-fat milk for a minimum of 1 hr at room temperature. Anti-Hsp70, anti-Raf-1, anti-MEK and anti-ERK antibodies were added for 1 hr at room temperature. Anti-phospho MEK and ERK antibodies were added overnight at 4° C. All primary antibodies were diluted 1:1,000 except actin (1:5,000). Horseradish peroxidase-labeled secondary antibodies (Jackson ImmunoResearch Labs, West Grove Pa.) were diluted 1:5000 and added for 30 min. Proteins were visualized using enhanced chemilumenscence detection.
# NQO1 [5] = target: T1, NQO1 (Homo sapiens, UniProt P15559); test: Reduction of 17-AAG by rhNQO1 and NADH, HPLC analysis; assay type: in vitro ADME
# T1 sequence (P15559 whole entry): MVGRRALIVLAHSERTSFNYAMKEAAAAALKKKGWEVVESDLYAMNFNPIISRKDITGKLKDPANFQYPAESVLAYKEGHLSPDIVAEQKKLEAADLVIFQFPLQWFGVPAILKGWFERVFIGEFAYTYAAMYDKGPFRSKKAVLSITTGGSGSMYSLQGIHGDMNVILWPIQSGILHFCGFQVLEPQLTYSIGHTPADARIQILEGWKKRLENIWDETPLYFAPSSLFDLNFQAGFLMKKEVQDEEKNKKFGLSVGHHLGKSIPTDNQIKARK
# Description: HPLC conditions: Buffer A, 50 mM ammonium acetate, pH 4 containing 10 μM D(−) penicillamine; buffer B, acetonitrile (100%). Both buffers were continuously bubbled with N2. Gradient, 20% B to 85% B over 20 min, then 85% for 4 min (flow rate of 1 ml/min). The sample injection volume was 50 μl. Liquid Chromatography-Mass Spectrometry was performed using positive ion electrospray ionization (ESI) and the mass spectra were obtained with a PE Sciex API-3000 triple quadrupole mass spectrometer (Foster City, Calif.) with a turbo ionspray source interfaced to a PE Sciex 200 HPLC system. Samples were chromatographed on a Luna C18 reverse-phase column (5 μm, 50×2 mm (Phenomenex) using a gradient elution consisting of a 2 min initial hold at 20% B followed by an increase to 80% B over 20 min at a flow rate of 0.2 ml/min and a sample injection volume of 20 μl. Buffer A, 10 mM ammonium acetate containing 0.1% (v/v) acetic acid, pH 4.4: buffer B, 10 mM ammonium acetate in acetonitrile containing 0.1% (v/v) acetic acid. The mass spectrometer settings were: turbo ionspray temperature of 250° C., spray needle voltage at 4500 V, declustering potential (DP) at 35 V and focus plate (FP) at 125 V. Mass spectra were continuously recorded from 150 to 1000 amu every 3 s during the chromatographic analysis.
# Inhibition of rhNQO1 by ES936 was >98%. […]
# [6] = clinical trials, background statement; cited from earlier work
# MDA468/NQ16 cells [7] = system: MDA468/NQ16 cells
# [8] = Stability (autoxidation) of 17-AAGH2 in solution by HPLC; assay type: physicochemical
# Source text: Results are mean, standard deviation, n=3.
# During analysis HPLC buffers were continuously gassed with N2 and a copper chelator was included. […] In these studies the autoxidation of 17-AAGH2 was followed over time in an aerobic reaction.
# NQO1 [9] = target: T1, NQO1; test: Inhibition of NQO1 activity by ES936 in MDA468/NQ16 cells; assay type: cell-based; set-up: expressed in transfected cells; host or cells: MDA468/NQ16 (human breast cancer MDA468 stably transfected with human NQO1)
# Source text: (§1) Inhibition of rhNQO1 by ES936 was >98%.
# NQO1 [10] = target: T1, NQO1; test: Inhibition of rhNQO1 by ES936; assay type: biochemical
# Source text: as §1
# [11] = MDA468/NQ16 cells, 5 μM 17-AAG, 4 hr
compound,measurement,setting,value
"C=CCNC1=C2C[C@@H](C)C[C@H](OC)[C@H](O)[C@@H](C)/C=C(\C)[C@H](OC(N)=O)[C@@H](OC)/C=C\C=C(/C)C(=O)NC(=CC1=O)C2=O [17-AAG, 17-demethoxy-17-(2-propenylamino)-geldanamycin]",Cell viability (trypan blue exclusion assay),MDA468 cells [1],> 90%
same,formation of 17-AAGH2 in intact cells,MDA468 cells [1],No 17-AAGH2 could be detected
same,inhibition of yeast Hsp90 ATPase activity in the presence of NQO1 (17-AAGH2 formed),yeast Hsp90,substantial decrease in ATPase activity
same,inhibition of yeast Hsp90 ATPase activity in the absence of NQO1,yeast Hsp90; NADH,No inhibition
same,IC50,MDA468 cells [2],10.1 ± 1.07 µM
same,IC50,"MDA468/NQ16 cells [3]; read-out: IC50 growth inhibition after pretreatment with ES936, pretreatment with 100 nM ES936 for 30 min, 4 hr exposure then 72 hr",7.67 ± 1.36 µM
same,IC50,"MDA468/NQ16 cells [3]; read-out: IC50 growth inhibition, MDA468/NQ16 cells, 4 hr exposure then 72 hr drug-free",0.86 ± 0.16 µM
same,generation of 17-AAGH2 by cell sonicates,[4],readily generated 17-AAGH2
same,generation of 17-AAGH2 by cell sonicates,MDA468 cell sonicates,No 17-AAGH2 could be detected
same,Hsp70 induction,"Hsp90; 17-AAG 0.5-1 μM, 8 hr",greater Hsp70 induction
same,Raf-1 degradation,"Hsp90; 17-AAG 0.5-1 μM, 8 hr",increased Raf-1 degradation
same,MEK and ERK phosphorylation,"Hsp90; serum starved 24 hr, 17-AAG 8 hr",decreased levels of both MEK and ERK phosphorylation
same,17-AAG detected in the form of the hydroquinone after reduction by NQO1,NQO1 [5],90%
same,hepatotoxicity / liver toxicity,[6],do not induce liver toxicity
same,Cell viability (trypan blue exclusion assay),MDA468/NQ16 cells [7]; [11],> 90%
same,formation of 17-AAGH2 in intact cells,MDA468/NQ16 cells [7]; [11],17-AAGH2 could be generated
same,accumulation of total drug (quinone plus hydroquinone) in cells,MDA468/NQ16 cells [7]; MDA468/NQ16 compared to ES936-treated or parental MDA468 cells,accumulated more total drug
"C=CCNc1c(O)cc2c(O)c1CC(C)CC(OC)C(O)C(C)C=C(C)C(OC(N)=O)C(OC)C=CC=C(C)C(=O)N2 (stereo not shown) [17-AAGH2, 17-Demethoxy-18,21-dihydroxy-17-(2-propenylamino)-geldanamycin]",autoxidation of the hydroquinone back to the quinone over time,"[8]; aerobic, 50 mM potassium phosphate buffer pH 7.4, 27° C.",slow rate of autoxidation back to 17-AAG over a period of hours
same,effect of copper on 17-AAGH2 oxidation,[8]; inclusion of copper (CuSO4),could facilitate 17-AAGH2 oxidation
same,inhibition of yeast Hsp90 ATPase activity in the presence of NQO1 (17-AAGH2 formed),yeast Hsp90,the active Hsp90 inhibitor
"CO[C@H]1/C=C\C=C(/C)C(=O)NC2=CC(=O)C(NCCN(C)C)=C(C[C@@H](C)C[C@H](OC)[C@H](O)[C@@H](C)/C=C(\C)[C@@H]1OC(N)=O)C2=O [17-DMAG, 17-demethoxy-17-[[2-(dimethylamino)ethyl]amino]-geldanamycin]",hepatotoxicity / liver toxicity,[6],do not induce liver toxicity
"COC1=CC(=O)c2c(c(COc3ccc([N+](=O)[O-])cc3)c(C)n2C)C1=O [ES936, 5-methoxy-1,2-dimethyl-3-[(4-nitrophenoxy)methyl]indole-4,7-dione]",inhibition at 0.1 µM,"NQO1 [9]; single dose 100 nM ES936, after 4 hr, MDA468/NQ16 cells",> 96%
same,toxicity of ES936 to cells,NQO1 [9]; single dose of 100 nM,nontoxic
same,Inhibition of rhNQO1,NQO1 [10],> 98%
"COC1=C2C[C@@H](C)C[C@H](OC)[C@H](O)[C@@H](C)/C=C(\C)[C@H](OC(N)=O)[C@@H](OC)/C=C\C=C(/C)C(=O)NC(=CC1=O)C2=O [GDM, geldanamycin]",hepatotoxicity / liver toxicity,[6],unacceptable hepatotoxicity
